Experiments:
[1] = DU-145 prostate tumor xenograft, PEG-docetaxel vs docetaxel; type: in vivo, mice; conditions: NCr nu/nu, mouse, in vivo, intravenous; DU-145 study, q7 d×2; read-out: tolerated dose (maximum tolerated dose)
DU-145 prostate tumors = test: as above; type: in vivo, mice; conditions: DU-145, two doses (q7 d×2)
in vivo = conditions: NCr nu/nu, mouse
Source text: Human NCl-H460 lung tumors (30 to 40 fragments of each) were implanted subcutaneously in the mice (Charles Rivers Labs: NCr nu/nu) near the right axillary area.
The animals were randomized into groups in a manner such that the median tumor weights on the first day of treatment were as close to each other as possible.
The mice received 1 or 2 intravenous doses of test compound or vehicle (saline).
The animals were weighed and the tumors measured twice weekly after administration of the first injection. The tumor volume was measured by caliper measurements (mm) and using the formula of an ellipsoid sphere: L×W^2/2=mm^3, where L and W refer to the larger and smaller perpendicular dimensions collected at each measurement. This formula was also used to calculate tumor weight assuming unit density (1 mm^3=1 mg).
Any animal found moribund or any animal whose tumor reached 4000 mg, ulcerated or was sloughed off was euthanized prior to study termination.

HT29 tumor fragments = test: HT29 colorectal tumor xenograft, monotherapy study (Example 21); type: in vivo; conditions: for Tumor growth delay: HT29, all three doses tested (40, 60, or 90 mg/kg); for tolerability: all doses
Source text: HT29 tumor fragments were implanted into female, athymic nude mice in the monotherapy study. […]. Animals were weighed and tumor volumes measured twice weekly after the first drug injection in both studies.

[2] = PK/PD study in HT29 colon tumor model (plasma and tumor AUC, t½); conditions: 40 mg/kg IV q4d x3, Day 1 AUC
MCF-7 breast tumor cells = test: MCF-7 breast tumor xenograft, 4-arm-PEG-gly-irino-20K vs irinotecan; type: in vivo, Female athymic (Nu:Nu) mice; conditions: for Days to 4 Times Tumor Size: median; for Tumor Regression Complete / Tumor Regression Partial: n=10
Description: Female athymic (Nu:Nu) mice were injected subcutaneously with MCF-7 breast tumor cells and the tumors were allowed to reach a median volume of 75 mm^3. […] The control group received normal saline. The animals were weighed and tumors were measured twice weekly after administration of the first drug injection.

[3] = system: Human HT29 colon tumor xenografts; test: HT29 colon tumor xenograft, anti-tumor activity (Examples 2 and 6); conditions: HT29 colon tumors, 3 doses; for delay in tumor growth (anti-tumor activity) compared to the control: 60 mg/kg IV every 4 days
Description: Human HT29 colon tumor xenografts were subcutaneously implanted in athymic nude mice. After about two weeks of adequate tumor growth (100 to 250 mg), these animals were divided into different groups of ten mice each. […] Doses were administered intravenously, with one dose administered every 4 days for a total of 3 administered doses. The mice were observed daily and the tumors were measured with calipers twice a week.
Athymic nude mice were implanted subcutaneously with human cancer cell lines (lung cancer cell line NCl-H460, and colon cancer cell line HT-29) and the tumors allowed to grow to approximately 150 mg in size. The animals were divided into groups of ten mice each.
Tumor volume measurements were taken over a period of 60-80 days; tumor volumes were converted to tumor weight. Body weights were also measured over the same period to provide an indication of weight loss.

[4] = PK/PD study in NCl-H460 lung tumor model (plasma and tumor AUC, t½); conditions: Day 1 AUC
[5] = Exposure to SN-38 in HT-29 colorectal tumors in mice (FIG. 20); type: in vivo
Description: (§1) Additional illustrative in-vivo studies were carried out as described previously herein or in accordance with methods well-known to one having ordinary skill in the art.

[6] = rodents
[7] = Diarrhea episodes in dogs (FIG. 23); type: in vivo
Description: as §1

[8] = Toxicity: maximum tolerated dose and side-effects in rat and dog (FIG. 22); type: in vivo
Description: as §1

neutrophils = test: Neutropenia in dogs, 4-arm-PEG-GLY-IRINO-20K vs irinotecan (FIG. 21); type: in vivo
Description: as §1

[9] = Plasma levels of SN-38 in dogs (FIG. 24); type: in vivo
Description: as §1

[10] = single dose, following PEG-Irinotecan administration

Molecule: CC(=O)O[C@@]12CO[C@@H]1C[C@H](O)[C@@]1(C)C(=O)[C@H](O)C3=C(C)[C@@H](OC(=O)[C@H](O)[C@@H](NC(=O)OC(C)(C)C)c4ccccc4)C[C@@](O)([C@@H](OC(=O)c4ccccc4)[C@H]21)C3(C)C [docetaxel]
- MTD at 78 day [1]: ≤ 30 mg/kg
- time after which tumors did recover and grow (DU-145 prostate tumors): 30 to 50 days
- anti-tumor effect on tumor growth (DU-145 prostate tumors; all 3 doses tested, 78 day observation period): good activity
- MTD (in vivo): ≤ 30 mg/kg

Molecule: CCc1c2c(nc3ccc(OC(=O)N4CCC(N5CCCCC5)CC4)cc13)-c1cc3c(c(=O)n1C2)COC(=O)[C@]3(O)CC [irinotecan, 7-ethyl-10[4-(1-piperidino)-1-piperidino] carbonyloxy CPT, reference compound]
- Tumor growth delay (HT29 tumor fragments; q4 d×3): 0.3 to 1.6 days
- tolerability (HT29 tumor fragments): well tolerated
- Exposure (AUC) of Irinotecan, Plasma [2]: 0.3 µg·days/mL
- Exposure (AUC) of SN38, Plasma [2]: 0.01 µg·days/mL
- Days to 4 Times Tumor Size (MCF-7 breast tumor cells; 20 mg/kg per dose x3): 40.2 days
- Tumor Regression Complete (MCF-7 breast tumor cells; 20 mg/kg per dose x3): 0
- Tumor Regression Partial (MCF-7 breast tumor cells; 20 mg/kg per dose x3): 0
- Median Duration (MCF-7 breast tumor cells; 40 mg/kg per dose x3): 42.0 days
- Days to 4 Times Tumor Size (MCF-7 breast tumor cells; 40 mg/kg per dose x3): 42.8 days
- Tumor Regression Complete (MCF-7 breast tumor cells; 40 mg/kg per dose x3): 0
- Tumor Regression Partial (MCF-7 breast tumor cells; 40 mg/kg per dose x3): 1
- delay in tumor growth (anti-tumor activity) compared to the control [3]: significantly improved when compared to the control
- Exposure (AUC) of Irinotecan, Plasma [4]: 0.5 µg·days/mL
- Exposure (AUC) of SN38, Plasma [4]: 0.2 µg·days/mL

Molecule: Pentaerythritolyl-4-Arm-(PEG-1-Methylene-2Oxo-Vinylamino Acetate Linked-Irinotecan)-20K [4-arm-PEG-GLY-IRINO-20K]
- exposure to SN-38 in colorectal tumors in comparison to irinotecan [5]: two to three times logarithmic increase
- complete tumor regression (animals) (HT29 tumor fragments; HT29, 90 mg/kg dose, q4 d×3): 3/10
- partial tumor regression (animals) (HT29 tumor fragments; HT29, 90 mg/kg dose, q4 d×3): 1/10
- Tumor growth delay (HT29 tumor fragments; q4 d×3): 20.9 to 60.2 days
- tumor growth inhibition compared to irinotecan (HT29 tumor fragments; HT29 human colorectal tumor xenograft model): more effectively than irinotecan
- tolerability (HT29 tumor fragments): well tolerated
- Exposure (AUC) of Irinotecan, Plasma [2]: 1.5 µg·days/mL
- Exposure (AUC) of PEG-Irinotecan, Plasma [2]: 2143 µg·days/mL
- Exposure (AUC) of PEG-SN38, Plasma [2]: 784 µg·days/mL
- Exposure (AUC) of SN38, Plasma [2]: 5.8 µg·days/mL
- t½ of PEG-Irinotecan, species comparison (in vivo): Dog > rat =
- exposure to irinotecan and SN38 vs dosing with irinotecan per se (single dose, all species examined): sustained and greater exposure
- AUC of PEG-Irinotecan, species comparison [10]: mouse < rat < dog
- AUC of SN38, species comparison [10]: mouse >> rat >> dog
- Cmax of PEG-Irinotecan, species comparison [10]: mouse < rat < dog
- Cmax of SN38, species comparison [10]: Mouse >> rat >> dog
- T − C (MCF-7 breast tumor cells; 20 mg/kg per dose x3): >52 days
- Days to 4 Times Tumor Size (MCF-7 breast tumor cells; 20 mg/kg per dose x3): >72 days
- Tumor Regression Complete (MCF-7 breast tumor cells; 20 mg/kg per dose x3): 0
- Tumor Regression Partial (MCF-7 breast tumor cells; 20 mg/kg per dose x3): 0
- Median Duration (MCF-7 breast tumor cells; 40 mg/kg per dose x3): 22.0 days
- T − C (MCF-7 breast tumor cells; 40 mg/kg per dose x3): >52 days
- Days to 4 Times Tumor Size (MCF-7 breast tumor cells; 40 mg/kg per dose x3): >72 days
- Tumor Regression Complete (MCF-7 breast tumor cells; 40 mg/kg per dose x3): 0
- Tumor Regression Partial (MCF-7 breast tumor cells; 40 mg/kg per dose x3): 1
- T − C (MCF-7 breast tumor cells; 60 mg/kg per dose x3): >52 days
- Days to 4 Times Tumor Size (MCF-7 breast tumor cells; 60 mg/kg per dose x3): >72 days
- Tumor Regression Complete (MCF-7 breast tumor cells; 60 mg/kg per dose x3): 0
- Tumor Regression Partial (MCF-7 breast tumor cells; 60 mg/kg per dose x3): 0
- T − C (MCF-7 breast tumor cells; 90 mg/kg per dose x3): >52 days
- Tumor Regression Partial (MCF-7 breast tumor cells; 90 mg/kg per dose x3, <50% of size observed on Day 1): 1
- Median Duration (MCF-7 breast tumor cells; 90 mg/kg per dose x3, interval regressed tumor below 50% pretreatment size): 49.0 days
- Days to 4 Times Tumor Size (MCF-7 breast tumor cells; 90 mg/kg per dose x3): >72 days
- Tumor Regression Complete (MCF-7 breast tumor cells; 90 mg/kg per dose x3, unpalpable): 0
- T-C value compared with irinotecan treatment groups (MCF-7 breast tumor cells; all 4 dose levels, p<0.001): significantly higher
- tumor regrowth (MCF-7 breast tumor cells; any dose level (FIG. 15A)): No tumor regrowth occurred
- SN38 levels and AUCs after PEG-Irinotecan [6]: very high AUCs
- delay in tumor growth compared to unconjugated irinotecan ([3]; 60 mg/kg (irinotecan content) IV every 4 days): significantly better
- delay in tumor growth (anti-tumor activity) compared to the control [3]: significantly improved when compared to the control
- diarrhea episodes compared to irinotecan [7]: fewer diarrhea episodes
- maximum tolerated dose (MTD) compared to irinotecan ([8]; FIG. 22, rat and dog): significantly higher
- occurrence and/or extent and/or severity of side-effects such as neutropenia and diarrhea vs irinotecan ([8]; equivalent doses (FIG. 23)): reduced
- Exposure (AUC) of Irinotecan, Plasma [4]: 2.0 µg·days/mL
- Exposure (AUC) of PEG-Irinotecan, Plasma [4]: 1213 µg·days/mL
- Exposure (AUC) of PEG-SN38, Plasma [4]: 229 µg·days/mL
- Exposure (AUC) of SN38, Plasma [4]: 2.6 µg·days/mL
- neutropenia compared to irinotecan at an equivalent dose (neutrophils): reduced neutropenia
- plasma levels of SN-38 compared to unmodified irinotecan [9]: elevated and sustained over a longer period of time
